Assay results as given in publication PMC11233931, “Remodeling tumor‐associated macrophage for anti‐cancer effects by rational design of irreversible inhibition of mitogen‐activated protein kinase‐activated protein kinase 2” (MedComm, 2024).

What was measured:
Experiment in all cases: Eurofins kinase selectivity profile against 380 other human recombinant kinases (Table S2)
Format in all cases: biochemical
[1] = target: T1, 380 human recombinant protein kinases (Homo sapiens, UniProt Q9HCP0); details: CK1γ1(h), read-out: Inhibition rate
T1 construct: purchased Eurofins (Celle Lévescault)
Outline: (§1)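 Outsourced panel: 380 human recombinant kinases; inhibitor tested at various concentrations; purpose: MK2 selectivity check.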

[2] = target: T2, 380 human recombinant protein kinases (Homo sapiens, UniProt Q02779); details: MLK2(h), read-out: Inhibition rate
T2 construct: purchased Eurofins (Celle Lévescault)
Outline: as §1

[3] = target: T3, 380 human recombinant protein kinases (Homo sapiens, UniProt P51813); details: Bmx(h), read-out: Inhibition rate
T3 construct: purchased Eurofins (Celle Lévescault)
T3 sequence (P51813 1-675): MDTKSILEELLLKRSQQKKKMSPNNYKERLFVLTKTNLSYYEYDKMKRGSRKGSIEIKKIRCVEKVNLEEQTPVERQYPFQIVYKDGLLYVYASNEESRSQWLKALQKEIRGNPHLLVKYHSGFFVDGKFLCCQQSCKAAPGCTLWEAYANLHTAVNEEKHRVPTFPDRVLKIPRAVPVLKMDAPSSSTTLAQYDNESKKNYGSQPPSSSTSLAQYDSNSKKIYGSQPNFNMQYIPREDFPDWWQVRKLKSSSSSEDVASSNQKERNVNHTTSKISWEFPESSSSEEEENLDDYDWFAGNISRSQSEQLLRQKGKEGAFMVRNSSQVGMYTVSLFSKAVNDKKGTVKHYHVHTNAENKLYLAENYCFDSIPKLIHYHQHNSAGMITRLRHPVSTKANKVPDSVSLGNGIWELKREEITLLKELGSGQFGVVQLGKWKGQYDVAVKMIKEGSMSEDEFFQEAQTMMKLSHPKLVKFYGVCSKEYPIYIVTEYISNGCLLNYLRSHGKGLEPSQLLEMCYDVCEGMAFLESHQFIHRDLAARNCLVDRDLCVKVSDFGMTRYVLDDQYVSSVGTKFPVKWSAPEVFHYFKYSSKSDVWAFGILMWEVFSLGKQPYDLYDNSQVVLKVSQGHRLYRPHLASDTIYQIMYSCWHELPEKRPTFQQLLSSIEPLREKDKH
Outline: as §1

[4] = target: T4, 380 human recombinant protein kinases (Homo sapiens, UniProt Q13873); details: BMPR2(h), read-out: Inhibition rate
T4 construct: purchased Eurofins (Celle Lévescault)
T4 sequence (Q13873 27-1038): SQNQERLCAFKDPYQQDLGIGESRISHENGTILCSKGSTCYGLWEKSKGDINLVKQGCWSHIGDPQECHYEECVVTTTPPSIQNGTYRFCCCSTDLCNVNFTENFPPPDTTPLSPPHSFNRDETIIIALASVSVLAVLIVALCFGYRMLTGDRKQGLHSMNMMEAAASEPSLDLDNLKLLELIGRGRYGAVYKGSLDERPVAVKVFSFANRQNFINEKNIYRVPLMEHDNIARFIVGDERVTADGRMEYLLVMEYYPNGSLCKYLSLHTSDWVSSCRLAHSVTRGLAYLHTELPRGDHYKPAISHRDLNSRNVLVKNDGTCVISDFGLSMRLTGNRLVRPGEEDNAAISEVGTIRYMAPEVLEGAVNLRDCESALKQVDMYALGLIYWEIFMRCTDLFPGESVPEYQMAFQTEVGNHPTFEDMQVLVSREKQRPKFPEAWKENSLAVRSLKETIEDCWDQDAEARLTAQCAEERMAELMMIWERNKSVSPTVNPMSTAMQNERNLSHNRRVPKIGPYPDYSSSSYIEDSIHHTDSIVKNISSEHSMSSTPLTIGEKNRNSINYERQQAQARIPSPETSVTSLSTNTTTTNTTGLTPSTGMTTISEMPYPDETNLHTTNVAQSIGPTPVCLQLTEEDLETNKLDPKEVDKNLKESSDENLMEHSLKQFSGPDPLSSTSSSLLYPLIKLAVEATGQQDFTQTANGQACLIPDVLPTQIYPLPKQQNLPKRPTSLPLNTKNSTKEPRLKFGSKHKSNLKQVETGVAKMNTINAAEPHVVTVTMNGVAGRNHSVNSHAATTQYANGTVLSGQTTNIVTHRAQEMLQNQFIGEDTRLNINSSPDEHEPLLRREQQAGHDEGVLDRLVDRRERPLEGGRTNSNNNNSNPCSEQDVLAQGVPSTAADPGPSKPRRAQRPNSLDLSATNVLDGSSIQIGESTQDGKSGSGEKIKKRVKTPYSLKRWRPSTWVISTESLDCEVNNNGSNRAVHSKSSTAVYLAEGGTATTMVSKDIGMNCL
Outline: as §1

[5] = target: T5, 380 human recombinant protein kinases (Homo sapiens, UniProt P49760); details: CLK2(h), read-out: Inhibition rate
T5 construct: purchased Eurofins (Celle Lévescault)
Outline: as §1

[6] = target: T6, 380 human recombinant protein kinases (Homo sapiens, UniProt P42684); details: Arg(h), read-out: Inhibition rate
T6 construct: purchased Eurofins (Celle Lévescault)
Outline: as §1

[7] = target: T7, 380 human recombinant protein kinases (Homo sapiens, UniProt P06213); details: IR(h), read-out: Inhibition rate
T7 construct: purchased Eurofins (Celle Lévescault)
Outline: as §1

[8] = target: T8, 380 human recombinant protein kinases (Homo sapiens, UniProt Q99755); details: PIP5K1α(h), read-out: Inhibition rate (%)
T8 construct: purchased Eurofins (Celle Lévescault)
Outline: as §1

[9] = target: T9, 380 human recombinant protein kinases (Homo sapiens, UniProt Q13177); details: PAK2(h), read-out: Inhibition rate
T9 construct: purchased Eurofins (Celle Lévescault)
Outline: as §1

T6 sequence (P42684 whole entry): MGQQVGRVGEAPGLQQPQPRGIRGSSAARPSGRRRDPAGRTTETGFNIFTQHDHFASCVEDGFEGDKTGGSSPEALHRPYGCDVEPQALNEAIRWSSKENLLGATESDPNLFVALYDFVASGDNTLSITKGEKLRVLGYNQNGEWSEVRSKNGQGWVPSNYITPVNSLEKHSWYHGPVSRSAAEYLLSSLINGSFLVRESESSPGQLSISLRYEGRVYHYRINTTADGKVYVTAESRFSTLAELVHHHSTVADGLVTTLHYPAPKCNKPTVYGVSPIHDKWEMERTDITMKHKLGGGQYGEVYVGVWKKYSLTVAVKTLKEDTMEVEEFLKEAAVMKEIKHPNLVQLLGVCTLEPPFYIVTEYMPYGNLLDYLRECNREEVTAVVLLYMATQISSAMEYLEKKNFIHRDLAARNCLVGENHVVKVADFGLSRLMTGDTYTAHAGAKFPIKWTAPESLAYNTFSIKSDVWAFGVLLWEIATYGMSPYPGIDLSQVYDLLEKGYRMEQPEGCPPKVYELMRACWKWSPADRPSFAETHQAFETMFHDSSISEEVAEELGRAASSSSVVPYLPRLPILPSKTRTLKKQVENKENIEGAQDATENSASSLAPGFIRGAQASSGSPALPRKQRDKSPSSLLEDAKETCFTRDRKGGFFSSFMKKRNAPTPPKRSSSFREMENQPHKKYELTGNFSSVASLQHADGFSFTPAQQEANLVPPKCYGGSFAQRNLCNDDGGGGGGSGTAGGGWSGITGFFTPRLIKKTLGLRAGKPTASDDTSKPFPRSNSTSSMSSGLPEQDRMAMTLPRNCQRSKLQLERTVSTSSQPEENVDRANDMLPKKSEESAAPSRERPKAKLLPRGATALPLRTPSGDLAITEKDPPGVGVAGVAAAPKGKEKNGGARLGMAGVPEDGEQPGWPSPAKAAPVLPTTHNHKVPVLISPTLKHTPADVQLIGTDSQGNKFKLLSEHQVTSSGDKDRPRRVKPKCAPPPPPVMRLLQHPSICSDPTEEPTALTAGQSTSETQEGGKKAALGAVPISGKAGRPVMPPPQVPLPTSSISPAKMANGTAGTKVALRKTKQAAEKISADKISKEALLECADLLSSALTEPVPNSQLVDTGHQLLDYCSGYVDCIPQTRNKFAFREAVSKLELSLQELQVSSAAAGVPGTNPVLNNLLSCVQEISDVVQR
T1 sequence (Q9HCP0 whole entry): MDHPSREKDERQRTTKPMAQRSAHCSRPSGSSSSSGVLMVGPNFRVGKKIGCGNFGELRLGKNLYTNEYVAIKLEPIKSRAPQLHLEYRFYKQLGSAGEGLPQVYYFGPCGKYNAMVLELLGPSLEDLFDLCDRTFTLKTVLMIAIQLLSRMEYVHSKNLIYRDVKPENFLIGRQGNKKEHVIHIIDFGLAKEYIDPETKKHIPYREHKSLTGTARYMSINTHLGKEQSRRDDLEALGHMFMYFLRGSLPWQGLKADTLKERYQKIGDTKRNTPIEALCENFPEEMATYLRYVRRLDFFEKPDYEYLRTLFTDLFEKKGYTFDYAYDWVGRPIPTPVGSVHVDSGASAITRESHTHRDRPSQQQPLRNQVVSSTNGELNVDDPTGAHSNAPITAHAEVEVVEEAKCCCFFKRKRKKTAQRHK
T9 sequence (Q13177 whole entry): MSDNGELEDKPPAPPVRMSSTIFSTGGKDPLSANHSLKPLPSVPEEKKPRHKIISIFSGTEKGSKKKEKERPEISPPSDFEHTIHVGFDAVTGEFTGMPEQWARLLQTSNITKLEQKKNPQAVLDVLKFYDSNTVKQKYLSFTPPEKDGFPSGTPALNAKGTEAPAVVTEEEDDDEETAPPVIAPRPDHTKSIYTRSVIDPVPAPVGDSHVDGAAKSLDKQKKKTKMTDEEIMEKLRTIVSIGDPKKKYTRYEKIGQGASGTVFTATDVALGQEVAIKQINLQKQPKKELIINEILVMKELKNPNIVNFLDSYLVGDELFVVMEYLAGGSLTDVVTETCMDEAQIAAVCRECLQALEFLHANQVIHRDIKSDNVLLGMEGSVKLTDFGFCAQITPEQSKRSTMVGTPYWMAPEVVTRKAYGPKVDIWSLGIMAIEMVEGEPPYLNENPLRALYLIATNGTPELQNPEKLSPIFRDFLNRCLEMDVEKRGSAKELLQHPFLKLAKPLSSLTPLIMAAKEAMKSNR
T8 sequence (Q99755 whole entry): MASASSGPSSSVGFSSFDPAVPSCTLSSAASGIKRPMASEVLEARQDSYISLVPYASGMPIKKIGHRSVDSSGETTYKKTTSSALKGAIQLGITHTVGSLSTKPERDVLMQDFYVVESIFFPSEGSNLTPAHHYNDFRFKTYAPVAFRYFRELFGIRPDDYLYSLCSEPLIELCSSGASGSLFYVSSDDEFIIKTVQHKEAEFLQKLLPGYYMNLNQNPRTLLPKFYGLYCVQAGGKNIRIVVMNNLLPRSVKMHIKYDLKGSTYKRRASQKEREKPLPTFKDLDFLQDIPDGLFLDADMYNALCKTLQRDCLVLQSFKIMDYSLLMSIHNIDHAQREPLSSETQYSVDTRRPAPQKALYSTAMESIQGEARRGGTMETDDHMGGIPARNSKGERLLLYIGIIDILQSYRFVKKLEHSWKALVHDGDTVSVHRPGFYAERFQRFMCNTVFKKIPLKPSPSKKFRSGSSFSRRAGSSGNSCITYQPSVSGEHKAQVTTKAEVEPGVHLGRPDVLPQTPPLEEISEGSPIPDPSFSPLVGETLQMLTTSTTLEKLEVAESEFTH
T7 sequence (P06213 28-1382): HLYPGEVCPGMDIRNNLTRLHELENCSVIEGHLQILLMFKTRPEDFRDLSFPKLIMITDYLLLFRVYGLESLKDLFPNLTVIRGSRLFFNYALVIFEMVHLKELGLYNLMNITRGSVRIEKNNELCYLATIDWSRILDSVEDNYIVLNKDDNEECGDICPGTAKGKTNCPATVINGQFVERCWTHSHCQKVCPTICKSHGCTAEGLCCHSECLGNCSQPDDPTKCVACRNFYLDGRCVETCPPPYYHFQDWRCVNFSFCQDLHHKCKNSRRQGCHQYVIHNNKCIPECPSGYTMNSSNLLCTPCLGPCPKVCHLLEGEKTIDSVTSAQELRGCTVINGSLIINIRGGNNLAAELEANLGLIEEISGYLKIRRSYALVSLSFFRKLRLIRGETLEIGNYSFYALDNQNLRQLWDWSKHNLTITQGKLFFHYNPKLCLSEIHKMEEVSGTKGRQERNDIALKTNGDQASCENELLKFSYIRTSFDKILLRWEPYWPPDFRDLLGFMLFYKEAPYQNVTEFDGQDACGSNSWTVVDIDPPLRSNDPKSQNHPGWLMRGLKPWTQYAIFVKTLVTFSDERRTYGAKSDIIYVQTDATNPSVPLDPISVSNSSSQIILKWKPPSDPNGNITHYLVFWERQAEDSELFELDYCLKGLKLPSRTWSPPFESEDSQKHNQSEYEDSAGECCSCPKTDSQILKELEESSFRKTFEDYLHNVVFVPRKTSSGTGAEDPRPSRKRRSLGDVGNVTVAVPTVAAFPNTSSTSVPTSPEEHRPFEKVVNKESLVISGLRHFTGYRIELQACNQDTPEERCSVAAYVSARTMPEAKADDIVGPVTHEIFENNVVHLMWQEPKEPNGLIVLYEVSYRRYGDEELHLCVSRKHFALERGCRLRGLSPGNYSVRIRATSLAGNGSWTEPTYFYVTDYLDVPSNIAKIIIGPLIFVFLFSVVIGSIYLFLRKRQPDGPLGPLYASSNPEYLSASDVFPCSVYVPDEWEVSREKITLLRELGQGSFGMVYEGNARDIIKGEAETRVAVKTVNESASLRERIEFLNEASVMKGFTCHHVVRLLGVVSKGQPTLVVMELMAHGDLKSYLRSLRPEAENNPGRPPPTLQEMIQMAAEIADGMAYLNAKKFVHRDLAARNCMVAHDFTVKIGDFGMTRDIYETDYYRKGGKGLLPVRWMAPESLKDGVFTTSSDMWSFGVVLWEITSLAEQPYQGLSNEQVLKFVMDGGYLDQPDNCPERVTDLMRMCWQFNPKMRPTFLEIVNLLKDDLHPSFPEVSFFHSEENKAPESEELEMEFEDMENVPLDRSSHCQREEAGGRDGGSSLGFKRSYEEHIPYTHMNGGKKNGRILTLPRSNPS
T2 sequence (Q02779 whole entry): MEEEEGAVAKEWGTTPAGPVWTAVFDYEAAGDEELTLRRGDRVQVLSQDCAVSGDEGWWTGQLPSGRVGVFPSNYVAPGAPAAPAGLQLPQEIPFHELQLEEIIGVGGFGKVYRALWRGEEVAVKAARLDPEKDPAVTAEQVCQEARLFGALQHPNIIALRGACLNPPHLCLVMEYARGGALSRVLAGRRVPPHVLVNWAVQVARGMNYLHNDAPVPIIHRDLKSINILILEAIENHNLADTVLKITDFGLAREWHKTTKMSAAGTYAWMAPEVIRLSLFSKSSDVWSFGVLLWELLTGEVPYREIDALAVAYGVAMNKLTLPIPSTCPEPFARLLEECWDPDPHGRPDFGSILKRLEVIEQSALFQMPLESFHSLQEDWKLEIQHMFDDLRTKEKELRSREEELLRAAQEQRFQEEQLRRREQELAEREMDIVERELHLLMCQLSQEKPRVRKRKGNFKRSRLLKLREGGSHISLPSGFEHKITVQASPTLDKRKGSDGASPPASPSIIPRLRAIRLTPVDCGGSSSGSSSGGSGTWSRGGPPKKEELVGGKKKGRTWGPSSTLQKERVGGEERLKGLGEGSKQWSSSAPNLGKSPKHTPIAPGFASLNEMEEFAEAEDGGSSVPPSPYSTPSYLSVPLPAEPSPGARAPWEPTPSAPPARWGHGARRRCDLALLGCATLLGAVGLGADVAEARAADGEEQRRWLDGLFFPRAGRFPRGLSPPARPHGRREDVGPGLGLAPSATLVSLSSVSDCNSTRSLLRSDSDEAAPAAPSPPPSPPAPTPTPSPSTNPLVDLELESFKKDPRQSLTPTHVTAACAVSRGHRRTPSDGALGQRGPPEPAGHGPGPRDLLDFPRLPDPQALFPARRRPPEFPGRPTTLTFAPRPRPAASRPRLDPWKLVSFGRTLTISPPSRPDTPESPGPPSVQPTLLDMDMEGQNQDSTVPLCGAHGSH

## C=CC(=O)Nc1cc(-c2cc(-c3cc4c([nH]3)CCNC4=O)ccn2)ccc1OC(F)(F)F [compound 11]
[1]; 10 nM
  inhibition at 0.01 µM: 0%
[1]; 100 nM
  inhibition at 0.1 µM: 14%
[1]; 1000 nM
  inhibition at 1 µM: 56%
[2]; 10 nM
  inhibition at 0.01 µM: -5%
[2]; 100 nM
  inhibition at 0.1 µM: 2%
[2]; 1000 nM
  inhibition at 1 µM: 10%
[3]; 10 nM
  inhibition at 0.01 µM: 1%
[3]; 100 nM
  inhibition at 0.1 µM: -4%
[3]; 1000 nM
  inhibition at 1 µM: -5%
[4]; 10 nM
  inhibition at 0.01 µM: 8%
[4]; 100 nM
  inhibition at 0.1 µM: 13%
[4]; 1000 nM
  inhibition at 1 µM: 28%
[5]; 10 nM
  inhibition at 0.01 µM: 1%
[5]; 100 nM
  inhibition at 0.1 µM: 10%
[5]; 1000 nM
  inhibition at 1 µM: 42%
[6]; 10 nM
  inhibition at 0.01 µM: 1%
[6]; 100 nM
  inhibition at 0.1 µM: 2%
[6]; 1000 nM
  inhibition at 1 µM: 6%
[7]; 10 nM
  inhibition at 0.01 µM: -9%
[7]; 100 nM
  inhibition at 0.1 µM: -4%
[7]; 1000 nM
  inhibition at 1 µM: -10%
[8]; 10 nM
  inhibition at 0.01 µM: -4%
[8]; 100 nM
  inhibition at 0.1 µM: -3%
[8]; 1000 nM
  inhibition at 1 µM: -2%
[9]; 10 nM
  inhibition at 0.01 µM: -3%
[9]; 100 nM
  inhibition at 0.1 µM: -5%
[9]; 1000 nM
  inhibition at 1 µM: -3%
